Source: patent US12366572B2, “Activation of bioluminescence by structural complementation” (Promega Corporation, priority 2013, dated 2025)
Primed or numbered codes have the meaning given here. No end group written: not given here. *: point of attachment. Dabcyl′ = N-terminal Dabcyl quencher, CN(C)c1ccc(/N=N/c2ccc(C(=O)*)cc2)cc1

Columns and labels:
[1] = system: circularly permuted Nluc (CP Nluc); assay: Inhibition of circularly permuted NanoLuc luciferase by dark peptides (Example 138); type: biochemical; settings: synthetic dark peptide dose-response, NanoGlo reagent, 5 min
Description: Recombinant CP Nluc was prepared as a soluble fraction of an E. coli 5×-concentrated lysate (T7-promoter; overnight expression). A 10,000-fold dilution of the CP Nluc in Assay Buffer (PBS pH 7/0.01% Prionex/1 mM DTT/0.005% Tergitol) was used. Synthetically-derived dark peptides were prepared across a range of concentrations, also in the Assay Buffer. Reactions were set up using 30 μL of CP NLuc and 60 μL of Dark peptide and assayed by adding 90 μL NanoGlo® assay reagent (Promega Corporation). Luminescence was measured (5 min) on a Tecan Infinite F500 reader (100 ms integration). Three replicates were used for Dark peptide samples. Two replicates were used for buffer controls (acetic acid from peptide stocks).

NLpoly11S and NLpep114 = assay: Inhibition of NLpoly11S/NLpep114 binding by dark peptides (Examples 136, 137); type: biochemical; settings: for Signal of dark peptide with NLpoly11S on its own: no NLpep114 (Example 137)
Description: In FIG. 183A, 50 nM NLpoly11S was mixed with […] NLpep114 and 37.5 μM dark peptide (DP) candidate (Q-162, A-162, K-162 or E-162). NanoGlo® assay reagent (Promega Corporation) was added and incubated for 5 minutes. Luminescence was detected. In FIG. 183B, 50 nM NLpoly11S in assay buffer (PBS pH7+0.01% Prionex+1 mM DTT+0.005% Tergitol) was mixed with 7.5 μM NLpep114 (also in assay buffer) and variable amounts of dark peptide (DP) candidates Q-162 or K-162 (also in assay buffer). NanoGlo® assay reagent (Promega Corporation) was added and incubated for 5 minutes. Luminescence was detected on a Tecan Infinite F500 reader; 100 ms integration time; 5 min time point used.
In FIG. 184A, 5 nM NLpoly11S was mixed with 500 nM NLpep114 and variable amounts of a dark peptide (DP) candidate Q-162 or A-162 (n=3). NanoGlo® assay reagent (Promega Corporation) was added and incubated for 5 minutes. Luminescence was detected.
In FIG. 184B, 5 nM NLpoly11S in assay buffer was mixed with variable amounts of dark peptide (DP) candidates Q-162 or A-162 in assay buffer (no NLpep114)(n=3). NanoGlo® assay reagent (Promega Corporation) was added and incubated for 5 minutes. Luminescence was detected.

NLpoly 5P = assay: Titration of NLpoly 5P with NLpep88-HT (Example 47); type: biochemical; settings: serial dilutions of NLpep88-HT lysate
BRD4/Histone H3.3 = BRD4/Histone H3.3 (Homo sapiens, UniProt O60885); assay: Inhibition of NLpoly11S-BRD4 / Histone H3.3-NLpep114 interaction in HEK293T cells (Example 128)
NLpoly11S [2] = assay: Dark and quencher peptides: background signal from NLpoly11S (Example 153); type: biochemical; settings: NLpoly11S in NanoGlo reagent, 5 min
Description: A purified sample of NLpoly11S was diluted into NanoGlo reagent to give a final concentration of 2 uM. Pep86 is a high affinity luminogenic peptide and was used to induce maximum signal for NLpoly11S. Pep86 was prepared at 1 nM in PBS (pH 7.2) for a working solution. Dark peptide and quencher peptides (FIG. 180) were dissolved to 1 mM (or lower) in either PBS pH 7.2 or 150 mM NH4HCO3 and added in equal volume to the NanoGlo/NLpoly11S and then samples were read on a Tecan Infinite F500 reader using a 5 min time point.

NLpoly11S [3] = assay: Binding of NLpoly11S to synthetic NLPep78/79 and N- or C-terminal HaloTag fusions (Examples 107, 108); settings: E. coli lysates, NanoGlo + 100 uM Fz
Description: (§1) Fusions of NLpep78-HaloTag (78-HT) and HaloTag-NLPep78 (HT-78) were quantitated, with a GST-HaloTag® fusion (GST-HT) as a control, by labeling E. coli lysates with the HaloTag-TMR® ligand, separated by SDS-PAGE, and scanned on Typhoon. A standard curve was then created using known concentrations of GST-HT standard, and band intensities of 78-HT and HT-78 were used to determine their concentrations.
(§2) E. coli lysates containing NLpoly11S were diluted 1:107 into PBS pH 7+0.1% Prionex. Serial dilutions of 78-HT, HT-78, and synthetic NLpep78 were made in PBS pH 7+0.1% Prionex. 20 uL NLpoly11S and 20 μL of one of the NLPep were mixed and incubated at ambient temperature for 5 minutes. 40 uL NanoGlo® reagent (Promega Corporation)+100 uM Fz were added, and the samples incubates at ambient temperature for 5 min. Luminescence was measured on GlomaxMulti+ using 0.5 s integration. Data was fit to one-site, specific binding using GraphPad Prism to determine Bmax and Kd.
as §1, with “NLpep79-HaloTag (79-HT)” for “NLpep78-HaloTag (78-HT)”, “HaloTag-NLPep79 (HT-79)” for “HaloTag-NLPep78 (HT-78)”, “79-HT” for “78-HT”, “HT-79” for “HT-78”
as §2, with “79-HT, HT-79,” for “78-HT, HT-78,”, “NLpep79” for “NLpep78”

HELA cells = assay: NLpep86-tagged firefly luciferase constructs in HELA cells detected with NLpoly11S reagent or Fluc activity (Example 141); type: cell-based; settings: 48 hours after transfection
Description: Validating the Use of Spontaneously Interacting NLpep86 as an Epitope Tag for Proteins Degraded by the Proteasome Experiments were conducted during development of embodiments of the present invention to validate the use of NLpep86 as a tag to monitor expression levels of proteins degraded by the proteasome. To do this, Nlpep86 was fused to firefly luciferase variants that were also fused to either one or more PEST, CL1 or ubiquitin sequences (pBC21, 22, 24-29). Each of these constructs is expected to undergo proteasome-mediated turnover to varying degrees following expression from a mutant CMV promoter (d1CMV).
The constructs pBC21, 22, 24-29 and control constructs expressing untagged firefly luciferase or untagged firefly luciferase fused to a PEST sequence (ATG082 and ATG083) were transiently transfected into HELA cells plated at 10,000 cells per well in a 96-well plate using 100 μL of DMEM+10% FBS. […] Protein expression levels were quantified in replicate wells for each construct by detecting firefly luciferase activity or by adding a detection reagent containing NLpoly11S (purified NLpoly11S added to NanoGlo®).
After a 48 hour incubation, 100 uL NanoGlo® […] reagent (90 ul of NLpoly11S in 50 ml of NanoGlo® assay reagent was added to each well and incubate for 3 minutes with shaking. Luminescence was then read on GloMax luminometer (0.5 sec/well).

[4] = system: wt Oplophorus 157-169 peptide; assay: Relative specific activity in HEK293T lysates (Example 143); type: biochemical; settings: averages of Vmax and Bmax normalized to NanoLuc
Description: Each clone was inserted into pFN21A HaloTag® CMV Flexi® Vector (Promega G2821), and lysates were prepared as follows: 3 ml HEK293T cells that have been diluted to a concentration of 200,000 cells/ml (600,000 cells total) were plated into each well of a 6-well plate and grown overnight at 37° C. in a CO2 incubator. The following day transfection complexes of each DNA were prepared by combining […] of DNA, Opti-MEM® (Life Technologies 11058-021) to a final volume of 310 μl and 20 μl of FuGENE® HD (Promega E231a). The transfection complexes were incubated for 20 minutes and then 150 μl of each complex added in duplicate to cells. The cells were grown overnight 37° C. in a CO2 incubator. The following day, the cells were washed cells with DPBS (Life Technologies 14190-144), and 1 ml fresh DPBS added. Cells were frozen to lyse and then thawed for testing. Duplicate transfection reactions lysates were combined.
In order to compare the specific activities of Nluc (full length enzyme) to wt Oplophorusl-156 and NLpoly11S in combination with wt Oplophorus 157-169 peptide (binary proteins), substrate titrations were run for all of the samples, but for the binary samples substrate titrations were run at multiple peptide concentrations. Using this format, it was possible to calculate a Vmax value for Nluc and both Vmax and Bmax values for NLpoly11S and wt Oplophorus 1-156. Three separate experiments were run using this format and Vmax and Bmax values were normalized to the Vmax of NanoLuc. Relative specific activities (calculated as averages of Vmax and Bmax) are normalized to NanoLuc.

[5] = high purity (>95%) peptides, 5 nM NLpoly11S, 500 nM NLpep114 (Example 137)

Molecule: VSGWALFKKIS [Ala-162]
- Inhibition of generation of luminescence by CP Nluc [1]: > 2 logs
- Signal of dark peptide with NLpoly11S on its own (NLpoly11S and NLpep114; 5 nM NLpoly11S): subtle at best
- Inhibition of binding between NLpoly11S and NLpep114 (NLpoly11S and NLpep114; [5]): dose-dependent
- Inhibition of binding between NLpoly11S and NLpep114 (NLpoly11S and NLpep114; high purity (>95%) peptides, 5 nM NLpoly11S, 500 nM NLpep114 (Example 137), listed as Ala peptide): most potent as an inhibitor

Molecule: NLpep88: NLpep78 with Gly as 6th residue instead of Arg, HT fusion lysate (MNVSGWGLFKKISN; also: HT fusion (lysate))
- Luminescence with NLpoly 5P (NLpoly 5P): no increase in luminescence above 5P alone at lower concentrations

Molecule: COc1cc2c(cc1-c1c(C)noc1C)ncc1[nH]c(=O)n([C@H](C)c3ccccn3)c12 [IBET-151]
- Time within which the decline in luminescence occurs (BRD4/Histone H3.3; 0-500 nM IBET-151, time course): ≤ 3 h
- Effect on luminescence of NLpoly11S-BRD4 / Histone H3.3-NLpep114 (BRD4/Histone H3.3; 0 to 10 μM, 4 h at 37° C.): dose-dependent decline in luminescence

Molecule: VSGWQLFKKIS [Gln-162]
- Inhibition of generation of luminescence by CP Nluc [1]: > 1 logs
- Signal of dark peptide with NLpoly11S on its own (NLpoly11S and NLpep114; 5 nM NLpoly11S): produces a signal on its own in a dose-dependent manner
- Inhibition of binding between NLpoly11S and NLpep114 (NLpoly11S and NLpep114; array peptides, 50 nM NLpoly11S, 7.5 μM NLpep114 (Example 136)): dose-dependent
- Inhibition of binding between NLpoly11S and NLpep114 (NLpoly11S and NLpep114; [5]): dose-dependent

Molecule: VTGWALFEEIL
- Luminescence relative to background (NLpoly11S alone; no peptide control) (NLpoly11S [2]): induce luminescence over background

Molecule: NVSGWRLFKKISN [NLPep78]
- Binding affinity to NLpoly11S: synthetic vs N- or C-terminal HaloTag fusion (NLpoly11S [3]): not found to change significantly
- Bmax with NLpoly11S when NLPep at the C-terminus of HaloTag (NLpoly11S [3]): reduced

Molecule: VTGYALFEEIL
- Luminescence relative to background (NLpoly11S alone; no peptide control) (NLpoly11S [2]): induce luminescence over background

Molecule: NVTGYRLFKKISN [NLPep79]
- Binding affinity to NLpoly11S: synthetic vs N- or C-terminal HaloTag fusion (NLpoly11S [3]): not found to change significantly
- Bmax with NLpoly11S when NLPep at the C-terminus of HaloTag (NLpoly11S [3]): reduced

Molecule: BC21: MVSGWRLFKKIS-GGSGGGGSGG-Fluc
- Relative brightness of construct (Fluc and NLpep86 signals) (HELA cells): brightest

Molecule: DAB-GWALFKK ({Dabcyl′}-GWALFKK) [Dabcyl-GWALFKK]
- Background luminescence generated by NLpoly11S in the absence of other luminogenic peptide (NLpoly11S [2]): reduce the background luminescence generated by NLpoly11S

Molecule: GWALFKK
- Background luminescence generated by NLpoly11S in the absence of other luminogenic peptide (NLpoly11S [2]): reduce the background luminescence generated by NLpoly11S

Molecule: BC26: MVSGWRLFKKIS-GGSGGGGSGG-Fluc-CP
- Relative brightness of construct (Fluc and NLpep86 signals) (HELA cells): least bright

B1: NanoLuc: full-length NanoLuc luciferase (Promega), SEQ ID NO: 2157 (protein)
chain: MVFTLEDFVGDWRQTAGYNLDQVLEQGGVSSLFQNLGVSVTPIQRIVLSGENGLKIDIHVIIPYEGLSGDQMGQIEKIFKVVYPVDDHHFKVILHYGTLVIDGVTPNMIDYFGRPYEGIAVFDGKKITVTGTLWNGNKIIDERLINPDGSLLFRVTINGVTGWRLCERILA
- Relative specific activity (*with wt 157-169 peptide) [4]: 1.00

B2: wt 1-156: Wild-Type Oplophorus Luciferase Residues 1-156 (protein)
chain: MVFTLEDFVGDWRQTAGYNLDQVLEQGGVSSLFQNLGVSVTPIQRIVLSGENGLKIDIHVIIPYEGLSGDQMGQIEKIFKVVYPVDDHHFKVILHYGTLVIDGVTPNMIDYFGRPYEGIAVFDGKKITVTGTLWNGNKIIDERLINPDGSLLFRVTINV
- Relative specific activity (*with wt 157-169 peptide) [4]: 0.07*
